Experiment [1] has as its target T1, tau protein in human tau-A152T neurons (Homo sapiens, UniProt P10636, A469T).
T1 construct: degrade tau protein in cultured human differentiated frontotemporal lobar dementia (FTD) neurons; endogenous in cells; host or cells: human differentiated FTD neurons, tau-A152T, 6-week differentiated
Put plainly: Dose-effect on tau in tau-A152T neurons (Western blot, total tau TAU5 and P-Tau S396). It counts as cell-based. As to conditions: human tau-A152T neurons (6-week differentiated), 24 hours treatment, 1 μM or 10 μM. Here is the method: (§1) Assays were performed according to protocols described in Silva et al., eLife, 8:e45457 (2019). Each of the bispecific compounds, along with the control parental scaffold, was evaluated for the ability to degrade tau protein in cultured human differentiated frontotemporal lobar dementia (FTD) neurons.
(§2) For each condition, 1 well of differentiated neuronal cells (6 well-plate) was washed and collected in PBS, pelleted and lysed in radioimmunoprecipitation assay (RIPA) buffer (Boston BioProducts) with 2% SDS (Sigma), protease inhibitors (Roche cOmplete™ Mini tablets), and phosphatase inhibitors (Sigma), followed by sonication in a water sonicator (Bransonic® Ultrasonic Baths, Thomas Scientific) for 5 minutes, and centrifugation at 20,000 g for 15 minutes. Supernatants were transferred to new tubes, total protein concentration was quantified with the Pierce™ BCA Protein Assay Kit (Thermo Scientific™), and SDS-PAGE gels were loaded with 10 μg total protein per well (pre-boiled samples). Western blots were performed with the Novex NuPAGE™ SDS-PAGE Gel System (Invitrogen™). All samples were resolved in 7% Tris-Acetate gels with Tris-Acetate running buffer (Invitrogen™). Blots were probed with antibodies against total tau (TAU5) and phosphorylated tau (Ser396), along with (3-actin as a loading control; followed by corresponding HRP-linked secondary antibodies (Cell Signaling Technology®), and SuperSignal™ West Pico Chemiluminescent Substrate (Thermo Scientific™) detection. Membranes were exposed to autoradiographic film (LabScientific) and films were scanned using an Epson® Perfection V800 Photo Scanner. Protein band intensities (pixel mean intensity) were quantified using Adobe Photoshop® CS5 Histogram function.
(§3) The vehicle alone (DMSO) had no effect on tau. However, varying degrading activity was observed among the specific compounds with overall similar relative levels of degrading activity between tau-A152T neurons and tau-P301L neurons. Bispecific compounds were added at the doses indicated (either 1 μM or 10 μM).
Background: A western blot detects proteins with antibodies after separation by electrophoresis.

The target of experiment [2] is T2, tau protein in human tau-P301L neurons (Homo sapiens, UniProt P10636, P618L).
T2 construct: degrade tau protein in cultured human differentiated frontotemporal lobar dementia (FTD) neurons; endogenous in cells; host or cells: human differentiated FTD neurons, tau-P301L, 6-week differentiated
Put plainly: Dose-effect on tau in tau-P301L neurons (Western blot, total tau TAU5 and P-Tau S396). It counts as cell-based. As to conditions: human tau-P301L neurons (6-week differentiated), 24 hours treatment, 1 μM or 10 μM. Here is the method:
as §1, §2, §3

T2 sequence (P10636 1-441 isoform P10636-8 P301L): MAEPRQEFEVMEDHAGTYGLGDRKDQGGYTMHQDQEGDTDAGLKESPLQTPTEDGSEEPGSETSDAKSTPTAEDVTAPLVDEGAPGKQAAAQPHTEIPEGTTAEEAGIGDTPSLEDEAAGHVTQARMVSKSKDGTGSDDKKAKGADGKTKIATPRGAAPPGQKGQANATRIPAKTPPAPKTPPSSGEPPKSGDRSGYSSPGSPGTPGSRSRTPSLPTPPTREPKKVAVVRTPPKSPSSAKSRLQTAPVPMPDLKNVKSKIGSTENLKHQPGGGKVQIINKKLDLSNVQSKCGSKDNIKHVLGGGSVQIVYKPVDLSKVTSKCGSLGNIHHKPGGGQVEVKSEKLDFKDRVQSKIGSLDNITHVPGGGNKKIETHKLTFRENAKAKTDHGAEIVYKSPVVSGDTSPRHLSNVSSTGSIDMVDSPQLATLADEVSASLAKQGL
T1 sequence (P10636 1-441 isoform P10636-8 A152T): as the sequence (P10636 1-441 isoform P10636-8 P301L) above, with A152T, L301P counted along it

`Nc1cccc2c1CN(C1CCC(=O)NC1=O)C2=O` (stereo not drawn) [Lenalidomide, reference compound]: the “degradation of hyperphosphorylated tau and/or total tau” value (“degradation” for short) in experiment [1] and in experiment [2] was “no effect on tau levels” in each case.
As to `CNc1ccc(/C=C/C=C/c2nc3ccc(OCCCCCCNC(=O)COc4cccc5c4C(=O)N(C4CCC(=O)NC4=O)C5=O)cc3s2)cn1` (stereo not drawn) [compound 2, 2-(2-(2,6-dioxopiperidin-3-yl)-1,3-dioxoisoindolin-4-yloxy)-N-(6-(2-((1E,3E)-4-(6-(methylamino)pyridin-3-yl)buta-1,3-dienyl)benzo[d]thiazol-6-yloxy)hexyl)acetamide], the “degradation” value in experiment [1] and in experiment [2] was “significantly degraded” throughout.
For the molecule `CNc1ccc(/C=C/C=C/c2nc3ccc(OCCOCCOCCNC(=O)COc4cccc5c4C(=O)N(C4CCC(=O)NC4=O)C5=O)cc3s2)cn1` (stereo not drawn) [compound 4, 2-(2-(2,6-dioxopiperidin-3-yl)-1,3-dioxoisoindolin-4-yloxy)-N-(2-(2-(2-(2-((1E,3E)-4-(6-(methylamino)pyridin-3-yl)buta-1,3-dienyl)benzo[d]thiazol-6-yloxy)ethoxy)ethoxy)ethyl)acetamide], the “degradation” value in experiment [1] and in experiment [2] was “significantly degraded” throughout.
